As usually defined, the Ki is a dissociation constant, usually derived from enzyme kinetics or from competition with a known ligand.

We go through 22 compounds from US9133235B2, “Macrocyclic antagonists of the motilin receptor for treatment of gastrointestinal dysmotility disorders” (Ocera Therapeutics, Inc., priority 2006, dated 2015).

Chain of human motilin receptor (O43193 whole entry): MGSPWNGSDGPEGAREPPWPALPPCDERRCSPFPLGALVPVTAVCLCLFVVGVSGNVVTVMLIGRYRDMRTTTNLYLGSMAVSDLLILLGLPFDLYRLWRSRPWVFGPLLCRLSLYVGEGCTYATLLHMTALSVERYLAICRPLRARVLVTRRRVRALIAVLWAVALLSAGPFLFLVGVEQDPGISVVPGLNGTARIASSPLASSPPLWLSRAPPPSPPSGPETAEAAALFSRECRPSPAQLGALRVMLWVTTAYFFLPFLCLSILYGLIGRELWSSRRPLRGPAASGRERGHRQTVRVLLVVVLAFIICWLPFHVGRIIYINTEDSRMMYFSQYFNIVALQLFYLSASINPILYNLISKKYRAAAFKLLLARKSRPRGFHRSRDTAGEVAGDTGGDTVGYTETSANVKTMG

This experiment concerns the target human motilin receptor (Homo sapiens, UniProt O43193). As to the kind of experiment: Competitive radioligand binding assay (motilin receptor). More on the design: purchased PerkinElmer (SignalScreen) 6110544; host or cells: CHO cells, stably transfected; membranes. As to conditions: [125I]-motilin competition, membranes of CHO cells with human motilin receptor; read-out: Ki. Here is the method:
A. Competitive Radioligand Binding Assay (Motilin Receptor)
The competitive binding assay at the human motilin receptor was carried out analogously to assays described in the literature.
• Membranes were prepared from CHO cells stably transfected with the human motilin receptor and utilized at a quantity of 1.5 μg/assay point. [PerkinElmer™ SignalScreen Product #6110544] • [^125I]-Motilin (PerkinElmer, #NEX-378); final concentration: 0.04-0.06 nM • Motilin (Bachem™, #H-4385); final concentration: 1 μM • Multiscreen Harvest plates-GF/B (Millipore™, #MAHFB1H60) • Deep-well polypropylene titer plate (Beckman Coulter™, #267006) • TopSeal-A (PerkinElmer, #6005185) • Bottom seal (Millipore, #MATAH0P00) • MicroScint-0 (PerkinElmer, #6013611) • Binding Buffer: 50 mM Tris-HCl (pH 7.4), 10 mM MgCl2, 1 mM EDTA, 0.1% BSA Assay Volumes: • 150 μL of membranes diluted in binding buffer • 10 μL of compound diluted in binding buffer • 10 μL of radioligand ([^125I]-Motilin) diluted in binding buffer Final Test Concentrations (N=11) for Compounds: • 10, 5.0, 2.0, 1.0, 0.50, 0.20, 0.10, 0.050, 0.020, 0.010, 0.0050 μM. Compound Handling:
Compounds were provided frozen on dry ice at a stock concentration of 10 mM diluted in 100% DMSO and stored at −20° C. until the day of testing. On the test day, compounds were allowed to thaw at room temperature and than diluted in assay buffer according to the desired test concentrations. Under these conditions, the maximum final DMSO concentration in the assay was 0.5%.
In deep-well plates, diluted cell membranes (1.5 μg/mL) are combined with 10 μL of either binding buffer (total binding, N=5), 1 μM motilin (non-specific binding, N=3) or the appropriate concentration of test compound. The reaction is initiated by addition of 10 μL of [^125I]-motilin (final conc. 0.04-0.06 nM) to each well. Plates are sealed with TopSeal-A, vortexed gently and incubated at room temperature for 2 hours. The reaction is arrested by filtering samples through pre-soaked (0.3% polyethyleneimine, 2 h) Multiscreen Harvest plates using a Tomtec Harvester, washed 9 times with 500 μL of cold 50 mM Tris-HCl (pH 7.4), and than plates are air-dried in a fumehood for 30 minutes. A bottom seal is applied to the plates prior to the addition of 25 μL of MicroScint-0 to each well. Plates are than sealed with TopSeal-A and counted for 30 sec per well on a TopCount Microplate Scintillation and Luminescence Counter (PerkinElmer) where results are expressed as counts per minute (cpm).
Data are analyzed by GraphPad™ Prism® (GraphPad Software, San Diego, Calif.) using a variable slope non-linear regression analysis.
[formula] where total and non-specific binding represent the cpm obtained in the absence or presence of 1 μM motilin, respectively.
For `CC(C)[C@H]1NC(=O)[C@@H](Cc2cccc(Cl)c2)NCCOc2ccccc2CCCNC(=O)[C@H](CCNC(=N)N)NC1=O` [Compound 507], the inhibition constant (Ki) is ≤ 100 nM.

On to `CC(C)[C@H]1NC(=O)[C@@H](Cc2cccc(Cl)c2)NCCOc2ccccc2CCCNC(=O)[C@H](CNc2nccs2)NC1=O` [Compound 509], for which the Ki is ≤ 100 nM.

For the compound `CC(C)[C@H]1NC(=O)[C@@H](Cc2cccc(F)c2)NCCOc2ccccc2C[C@@H](C)CNC(=O)[C@H](CN(C)C)NC1=O` [Compound 514], the inhibition constant (Ki) is ≤ 1000 nM.

For `CC(C)[C@H]1NC(=O)[C@@H](Cc2cccc(Cl)c2)NCCOc2ccccc2CCCNC(=O)[C@H](CC(=N)N)NC1=O` [Compound 518], the Ki was ≤ 100 nM.

On to `CC(C)[C@H]1NC(=O)[C@@H](Cc2cccc(Cl)c2)NCCOc2ccccc2CCCNC(=O)[C@H](CNC2=NCCCN2)NC1=O` [Compound 521], for which the inhibition constant (Ki) is ≤ 100 nM.

On to `CC(C)[C@H]1NC(=O)[C@@H](Cc2cccc(Cl)c2)NCCOc2ccccc2CCCNC(=O)[C@H](CN/C(N)=N/C#N)NC1=O` [Compound 522], for which the inhibition constant (Ki) was ≤ 100 nM.

As to `CC(C)[C@H]1NC(=O)[C@@H](Cc2cccc(C(F)(F)F)c2)NCCOc2ccccc2CCCNC(=O)[C@H](Cn2nncc2CN)NC1=O` [Compound 523], the inhibition constant Ki was ≤ 100 nM.

In the case of `CC(C)[C@H]1NC(=O)[C@@H](Cc2cccc(C(F)(F)F)c2)NCCOc2ccccc2CCCNC(=O)[C@H](CNc2ncccn2)NC1=O` [Compound 524], the Ki was ≤ 100 nM.

With `CC(C)[C@H]1NC(=O)[C@@H](Cc2cccc(C(F)(F)F)c2)NCCOc2ccccc2CCCNC(=O)[C@H](CN2CCOCC2)NC1=O` [Compound 525], the Ki was ≤ 100 nM.

Regarding `Cc1cnnn1C[C@@H]1NC(=O)[C@@H](C(C)C)NC(=O)[C@@H](Cc2cccc(C(F)(F)F)c2)NCCOc2ccccc2CCCNC1=O` [Compound 526], the Ki was ≤ 100 nM.

For `Cc1nnnn1C[C@@H]1NC(=O)[C@@H](C(C)C)NC(=O)[C@@H](Cc2cccc(C(F)(F)F)c2)NCCOc2ccccc2CCCNC1=O` [Compound 527], the inhibition constant Ki was ≤ 100 nM.

Consider `Cc1nnn(C[C@@H]2NC(=O)[C@@H](C(C)C)NC(=O)[C@@H](Cc3cccc(C(F)(F)F)c3)NCCOc3ccccc3CCCNC2=O)c1C` [Compound 528], for which the Ki is ≤ 100 nM.

On to `CC(C)C[C@@H]1NC(=O)[C@@H](C(C)C)NC(=O)[C@@H](Cc2cccc(F)c2)N[C@@H](C)COc2ccccc2CCCNC1=O` [Compound 556], for which the inhibitory constant (Ki) is ≤ 10 nM.

For `CCC[C@@H]1NC(=O)[C@@H](CC)NC(=O)[C@@H](Cc2cccc(F)c2)N[C@@H](C)COc2ccccc2CCCNC1=O` [Compound 558], the Ki is ≤ 10 nM.

In the case of `CC(C)[C@H]1NC(=O)[C@@H](Cc2ccc(F)cc2)N[C@@H](C)COc2ccccc2CCCNC(=O)[C@H](CC2CC2)NC1=O` [Compound 559], the inhibitory constant (Ki) was ≤ 10 nM.

With `CCC[C@@H]1NC(=O)[C@@H](C(C)C)NC(=O)[C@@H](Cc2ccc(F)cc2)N[C@@H](C)COc2ccccc2CCCNC1=O` [Compound 560], the Ki was ≤ 10 nM.

For the compound `CCC[C@@H]1NC(=O)[C@@H](C(C)C)NC(=O)[C@@H](Cc2ccc(F)c(F)c2)N[C@@H](C)COc2ccccc2CCCNC1=O` [Compound 561], the inhibition constant Ki was ≤ 10 nM.

As for `CCC[C@@H]1NC(=O)[C@@H](C(C)C)NC(=O)[C@@H](Cc2cccc(OC)c2)N[C@@H](C)COc2ccccc2CCCNC1=O` [Compound 562], the Ki was ≤ 10 nM.

With `C[C@@H]1CNC(=O)[C@H](CC2CC2)NC(=O)[C@@H](C2CC2)NC(=O)[C@@H](Cc2cccc(F)c2)NCCOc2ccccc2C1` [Compound 566], the inhibition constant (Ki) was ≤ 10 nM.

On to `CC(C)[C@H]1NC(=O)[C@@H](Cc2ccc(F)cc2)NCCOc2ccccc2C[C@H](C)CNC(=O)[C@H](CC2CC2)NC1=O` [Compound 567], for which the inhibition constant Ki is ≤ 10 nM.

Consider `CCC[C@@H]1NC(=O)[C@@H](C(C)C)NC(=O)[C@@H](Cc2ccc(C(F)(F)F)cc2)NCCOc2ccccc2CCCNC1=O` [Compound 575], for which the Ki is ≤ 100 nM.

For the compound `CC(C)[C@H]1NC(=O)[C@@H](Cc2ccc(Cl)cc2)NCCOc2ccccc2CCCNC(=O)[C@H](CNS(C)(=O)=O)NC1=O` [Compound 576], the Ki is ≤ 1000 nM.
